Target: T1, Sodium- and chloride-dependent glycine transporter 1 (Homo sapiens, UniProt P48067)
T1 sequence (P48067 whole entry): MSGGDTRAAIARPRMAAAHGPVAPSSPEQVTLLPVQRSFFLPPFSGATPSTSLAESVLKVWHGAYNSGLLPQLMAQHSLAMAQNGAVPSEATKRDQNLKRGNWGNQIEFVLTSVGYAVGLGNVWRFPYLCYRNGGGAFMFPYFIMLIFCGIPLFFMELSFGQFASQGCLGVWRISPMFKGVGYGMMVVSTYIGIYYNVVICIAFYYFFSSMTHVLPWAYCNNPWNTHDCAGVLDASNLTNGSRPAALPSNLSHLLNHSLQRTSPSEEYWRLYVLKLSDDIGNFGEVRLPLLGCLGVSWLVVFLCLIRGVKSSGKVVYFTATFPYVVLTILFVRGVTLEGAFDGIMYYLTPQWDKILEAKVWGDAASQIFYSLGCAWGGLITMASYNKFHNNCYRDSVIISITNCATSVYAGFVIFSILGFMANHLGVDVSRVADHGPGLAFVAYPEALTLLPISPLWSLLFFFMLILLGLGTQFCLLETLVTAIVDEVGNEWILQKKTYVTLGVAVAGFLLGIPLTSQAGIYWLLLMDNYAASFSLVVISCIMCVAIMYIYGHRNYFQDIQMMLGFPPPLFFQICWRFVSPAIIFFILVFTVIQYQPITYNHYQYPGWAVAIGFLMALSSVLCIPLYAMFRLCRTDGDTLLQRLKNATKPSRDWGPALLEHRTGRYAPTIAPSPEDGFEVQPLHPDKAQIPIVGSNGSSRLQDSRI
Experiment: Radioligand Binding Assay: Radioligand binding to human GlyT1c transporter-expressing membranes was determined as described in Mezler et al., Molecular Pharmacology 74:1705-1715, 2008.

Ki: < 10 µM
Structure (SMILES): NCC(Cc1ccccc1)c1ccc2c(c1)CN(S(=O)(=O)CC1CC1)CC2 (stereo unspecified)
